According to ChEMBL document CHEMBL2401621, “Design, synthesis and antibacterial evaluation of novel AHL analogues” (2013):
Converted amounts (≈) assume the structure as drawn.

Columns and labels:
Format in all cases: functional
[1] = test system: Escherichia coli; assay: Antibacterial activity against Escherichia coli after 18 hrs by broth microdilution method
[2] = test system: Pseudomonas aeruginosa; assay: Antibacterial activity against Pseudomonas aeruginosa after 18 hrs by broth microdilution method
[3] = test system: Staphylococcus aureus; assay: Antibacterial activity against Staphylococcus aureus after 18 hrs by broth microdilution method
[4] = test system: Bacillus subtilis; assay: Antibacterial activity against Bacillus subtilis after 18 hrs by broth microdilution method

SMILES	MIC50 [1]	MIC50 [2]	MIC50 [3]	MIC50 [4]
O=C(CSC(=S)N[C@H]1CCOC1=O)Nc1ccccc1Cl	> 128 µg/mL	> 128 µg/mL	5.62 µg/mL (≈ 16.3 µM)	9.63 µg/mL (≈ 27.9 µM)
C[C@H]1COc2c(N3CCN(C)CC3)c(F)cc3c(=O)c(C(=O)O)cn1c23.C[C@H]1COc2c(N3CCN(C)CC3)c(F)cc3c(=O)c(C(=O)O)cn1c23.O [LEVOFLOXACIN]	< 0.25 µg/mL	< 0.25 µg/mL	< 0.25 µg/mL	< 0.25 µg/mL
COc1ccc(NC(=O)CSC(=S)N[C@H]2CCOC2=O)cc1	54.2 µg/mL (≈ 159 µM)	> 128 µg/mL	9.52 µg/mL (≈ 28 µM)	> 128 µg/mL
CCSC(=S)N[C@H]1CCOC1=O	25.2 µg/mL (≈ 123 µM)	34.6 µg/mL (≈ 168 µM)	> 128 µg/mL	> 128 µg/mL
O=C(CSC(=S)N[C@H]1CCOC1=O)Nc1ccccc1F	40.5 µg/mL (≈ 123 µM)	> 128 µg/mL	6.53 µg/mL (≈ 19.9 µM)	> 128 µg/mL
O=C(CSC(=S)N[C@H]1CCOC1=O)Nc1cccc(Cl)c1	> 128 µg/mL	> 128 µg/mL	> 128 µg/mL	> 128 µg/mL
O=C(CSC(=S)N[C@H]1CCOC1=O)Nc1cccc(C(F)(F)F)c1	> 128 µg/mL	> 128 µg/mL	5.81 µg/mL (≈ 15.3 µM)	1.44 µg/mL (≈ 3.81 µM)
O=C(CSC(=S)N[C@H]1CCOC1=O)Nc1ccccc1	> 128 µg/mL	48.5 µg/mL (≈ 156 µM)	7.72 µg/mL (≈ 24.9 µM)	47.9 µg/mL (≈ 154 µM)
Cc1cccc(NC(=O)CSC(=S)N[C@H]2CCOC2=O)c1C	> 128 µg/mL	> 128 µg/mL	> 128 µg/mL	> 128 µg/mL
O=C(CSC(=S)N[C@H]1CCOC1=O)Nc1ccc(Cl)cc1Cl	21 µg/mL (≈ 55.4 µM)	> 128 µg/mL	4.9 µg/mL (≈ 12.9 µM)	5.6 µg/mL (≈ 14.8 µM)
CCCCCCSC(=S)N[C@H]1CCOC1=O	> 128 µg/mL	> 128 µg/mL	> 128 µg/mL	> 128 µg/mL
O=C(CSC(=S)N[C@H]1CCOC1=O)Nc1cccc([N+](=O)[O-])c1	12.8 µg/mL (≈ 36 µM)	59.9 µg/mL (≈ 169 µM)	8.67 µg/mL (≈ 24.4 µM)	6.29 µg/mL (≈ 17.7 µM)
CCCCCCCCCCCCSC(=S)N[C@H]1CCOC1=O	> 128 µg/mL	> 128 µg/mL	50.6 µg/mL (≈ 146 µM)	> 128 µg/mL
Cc1cccc(NC(=O)CSC(=S)N[C@H]2CCOC2=O)c1	> 128 µg/mL	37.2 µg/mL (≈ 115 µM)	> 128 µg/mL	> 128 µg/mL
CSC(=S)N[C@H]1CCOC1=O	17.6 µg/mL (≈ 92 µM)	31.9 µg/mL (≈ 167 µM)	> 128 µg/mL	> 128 µg/mL
Cc1ccc(NC(=O)CSC(=S)N[C@H]2CCOC2=O)cc1	30.6 µg/mL (≈ 94.3 µM)	63.8 µg/mL (≈ 197 µM)	3.49 µg/mL (≈ 10.8 µM)	> 128 µg/mL
CCCCCCCCCCCCCCSC(=S)N[C@H]1CCOC1=O	67.8 µg/mL (≈ 182 µM)	> 128 µg/mL	> 128 µg/mL	> 128 µg/mL
O=C(CSC(=S)N[C@H]1CCOC1=O)Nc1ccc(Cl)cc1	> 128 µg/mL	> 128 µg/mL	3.5 µg/mL (≈ 10.1 µM)	> 128 µg/mL
O=C(CSC(=S)N[C@H]1CCOC1=O)Nc1ccc(Br)cc1	24.9 µg/mL (≈ 63.9 µM)	54.5 µg/mL (≈ 140 µM)	3.69 µg/mL (≈ 9.48 µM)	30.2 µg/mL (≈ 77.7 µM)
CCCCSC(=S)N[C@H]1CCOC1=O	> 128 µg/mL	44.6 µg/mL (≈ 191 µM)	> 128 µg/mL	> 128 µg/mL
CCCCCCCCSC(=S)N[C@H]1CCOC1=O	> 128 µg/mL	> 128 µg/mL	> 128 µg/mL	> 128 µg/mL
